This is an account of results in patent publication US20100226917A1, “METHODS FOR THE TREATMENT OF HEMATOLOGIC MALIGNANCIES” (AstraZeneca AB, priority 2007, published 2010).

The test system of test [1] is Mec1 chronic B cell leukemia cell line. Nature of the test: Cell Titer-Glo luminescent cell viability assay, Mec1 cell line. It is filed as cell-based. As to conditions: Homo sapiens; Mec1, 48 hour treatment. How it is done: (§1) Chronic B cell leukemia cell lines (JVM2 and Mec1) (American Type Culture Collection (ATCC), Manassas, Va.) were plated in 96 well plates and 24 hours later were treated with increasing concentrations of a CHK1 inhibitor (Formula 1.1). Following 48 hour treatment cell viability was measured using Cell Titer-Glo® luminescent cell viability assay (Promega, Madison, Wis.).
For orientation: In ATP-based viability assays light output follows the ATP content of the culture.

Test [2] concerns JVM2 chronic B cell leukemia cell line. Briefly: Cell Titer-Glo luminescent cell viability assay, JVM2 cell line. The test is classed as cell-based. As to conditions: Homo sapiens, JVM-2; JVM2, 48 hour treatment. How it is done: as §1
In test [3] the test system is tumor cells isolated from CLL patients. Nature of the test: Ex vivo cell viability (Cell Titer-Glo) of mononuclear cells isolated from CLL patient blood. It is filed as cell-based, human. As to conditions: 48 hour treatment; for IC50: Homo sapiens. As to the method:
Blood samples (10 mls) were collected from CLL patients and placed on ice. Whole blood was then diluted with phosphate buffered saline (PBS) (2-3 fold dilution) and carefully layered over 12 mls Ficoll-paque (GE Healthcare, Westborough, Mass.) in a 50 ml conical tube. Samples were then centrifuged at 3500 rpm for 35 minutes without break at room temperature. Plasma was removed and opaque interphase containing mononuclear cells was collected and placed into a clean conical centrifuge tube. Cells were then washed twice with PBS with 1% fetal bovine serum (FBS). Following final wash, cells were resuspended in 5˜10 mls RPMI 1640 (Invitrogen, Grand Island, N.Y.) plus 10% fetal calf serum (FCS) medium. Cells were then counted by Trypan blue exclusion method and viability and purity assessed.
Cells were then plated into 96 well plates (1×10^5 cells/well) and incubated overnight in a drug free medium. The next morning cells were treated with fludarabine (1, 3 and 10 μM), gemcitabine (0.1 and 1 μM), CHK1 inhibitor of Formula 1.1 (0.01, 0.1 and 0.5 μM) or the combination of fludarabine and CHK1 inhibitor or gemcitabine and CHK1 inhibitor. […] Following 48 hour treatment, cell viability was measured using Cell Titer-Glo® luminescent cell viability assay (Promega, Madison, Wis.).

Test [4] relates to marrow mononuclear cells from patients with acute myelogenous leukemia. Nature of the test: Colony formation of AML patient marrow mononuclear cells in methylcellulose. The test is classed as cell-based, human. As to conditions: 30-300 nM, 48-hour incubation, colonies scored after 14 days, 9 AML patient samples. As to the method:
Marrow mononuclear cells from 9 patients with acute myelogenous leukemia were isolated by sedimentation on Ficoll-Hypaque density gradients (English et al. Single-Step Separation of Red Blood Cells. Granulocytes and Mononuclear Leukocytes on Discontinuous Density Gradients of Ficoll-Hypaque. Journal of Immunological Methods, 5: 249-252, 1974). After removal of an aliquot for staining to determine the percentage of blasts, replicate aliquots containing 1×10^6 cells in 1 ml Improved Dulbecco's Medium containing 20% heat-inactivated fetal bovine serum, 50 units/ml penicillin G, 50 μg/ml streptomycin and 2 mM glutamine (medium A) were treated with diluent (0.2% dimethyl sulfoxide), increasing concentrations of cytarabine alone (25-300 nM), increasing concentrations of a CHK-1 inhibitor (formula 1.1) (30-300 nM), or increasing concentrations of cytarabine in the presence of 100 nM of a CHK-1 inhibitor (Formula 1.1). […] Following a 14-day incubation at 37° C., colonies containing ≧50 cells were scored on an inverted microscope using established criteria (Eaves, C. and Lambie, K. Atlas of human hematopoietic colonies. Vancouver: StemCell Technologies Inc., 1995). […]

In another test the target is T1, CD20 antigen (Homo sapiens, UniProt P11836).
T1 sequence (P11836 1-297): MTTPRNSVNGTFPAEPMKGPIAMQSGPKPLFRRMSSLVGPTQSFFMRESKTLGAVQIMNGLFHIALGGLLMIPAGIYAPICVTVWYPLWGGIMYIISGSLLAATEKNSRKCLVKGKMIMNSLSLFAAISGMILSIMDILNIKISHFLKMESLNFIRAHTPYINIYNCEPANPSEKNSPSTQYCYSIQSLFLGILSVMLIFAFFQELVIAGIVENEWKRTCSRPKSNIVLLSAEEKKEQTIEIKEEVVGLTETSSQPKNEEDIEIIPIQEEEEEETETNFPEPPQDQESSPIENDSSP
To be noted: read-out: binding affinity; cited from earlier work.

Where [5] appears, read: relapsed patient who one week prior received rituximab treatment.
[6] abbreviates: newly diagnosed patient who had not received previous treatment.

Consider `NC(=O)Nc1cc(-c2cccc(F)c2)sc1C(=O)N[C@H]1CCCNC1` [Formula 1.1, 5-(3-Fluoro-phenyl)-3-ureido-thiophene-2-carboxylic acid (S)-piperidin-3-ylamide], for which the values for the GI50 in test [1] and in test [2] were 79 nM and 13 nM, respectively. In addition, the half-maximal inhibitory concentration (IC50) in test [3] (setting [5]) was determined as 11 nM. In addition, the “response (cell viability)” value in test [3] (setting [6]) is “not”. The “samples showing single agent sensitivity” value in test [4] was “Four out of nine samples”.
As for `Nc1nc(F)nc2c1ncn2[C@@H]1O[C@H](CO)[C@@H](O)[C@@H]1O` [fludarabine], the IC50 in test [3] (setting [6]) stood at 560 nM; in test [3] (setting [5]), 5100 nM.
For the compound `Nc1ccn([C@@H]2O[C@H](CO)[C@@H](O)C2(F)F)c(=O)n1` [gemcitabine], the “response (cell viability)” value in test [3] (setting [6]) and in test [3] (setting [5]) was “not” in each case.
In the case of rituximab, the Kd in the test with CD20 antigen was roughly 8 nM.

One may read the GI50 as the concentration that inhibits growth by half. A high value points to lower sensitivity of the cells. The term IC50 denotes the concentration that gives 50% inhibition.
